Article PMC10825133, “Repurposing proteasome inhibitors for improved treatment of triple-negative breast cancer” (Cell Death Discovery, 2024)
Where two headings read alike, the source gives them in different places. Residues, ends and D or L forms follow the SMILES beside them. *: point of attachment. Cbz = O=C(OCc1ccccc1)*

How the values were obtained:
MCF-10A cells = assay: Resazurin-based cell viability assay, monotherapy drug screen; design: species or system human; AUC: scale not given here; settings: for AUC: area under the dose response curve; for GRmax: drug efficacy at highest tested dose (<0 cytotoxic, 0 cytostatic, >0 partial growth inhibition)
Outline: (§1)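 Cells were seeded at the highest density (tested 1000-16000 cells/well) giving linear growth between days 1 and 3, keeping them in exponential phase over the ~52 h experiment. Viability was read after 4 h at 37 °C with 0.2 mg/ml resazurin added at 10% of medium volume; ex 560/em 615 nm.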

MDA-MB-453 cells = assay: as above; design: species or system human; AUC: scale not given here; settings: for AUC: area under the dose response curve, 24 h; for GRmax: drug efficacy at highest tested dose (<0 cytotoxic, 0 cytostatic, >0 partial growth inhibition)
Outline: as §1

[1] = system: eight TNBC cell lines and two controls (MCF-10A and MCF-7); assay: Monotherapy drug screen, all investigated cell lines; format: cell-based, human; settings: for drug potency classification, below the threshold: GR50 and AUC both below the threshold
Protocol: (§2) Eighteen pharmaceutical compounds were purchased from Selleckchem (Supplementary Table 2). Stock solutions were prepared using dimethyl sulfoxide (DMSO; Merck), physiological saline (sodium chloride 0.9%) or Milli-Q water, and stored at −80 °C. […] Matched concentration solvent vehicle controls were used for each drug concentration. The drug screens were performed in triplicate and repeated three (monotherapy) or two (combination therapy) times (Fig. 7).
(§3) The optimal seeding density per 96-well was determined for each cell line as previously described. The cells were seeded at a density of 4.0 × 10^3 to 7.5 × 10^3 (cell type dependent) in 96-well clear, flat-bottom microplates (Corning Life Sciences, Sigma-Aldrich) in 100 µl complete culture medium (Supplementary Table 1) and cultured for 24 h. Cell viability was determined using the resazurin assay in untreated cells at the time of plating (t = 0) and treated cells after 24 h drug treatment (Fig. 7). Percentage cell viability was calculated as 100% × (absorbance of treated cells – absorbance of background controls) / (absorbance of matched solvent vehicle controls – absorbance of background controls). The area under the curve (AUC), half-maximal inhibitory concentration (IC50), drug potency (GR50), and drug efficacy (GRmax) were determined for each compound using the GRmetrics (version 1.20.0) package in R. The monotherapy data were evaluated with the IDACombo (version 1.0.2) package in R to predict potential drug combinations (Table 1). SynergyFinder (version 3.2.10) package in R was used to identify synergistic drug combinations.
(§4) Eighteen pharmaceutical compounds were purchased from Selleckchem. […] The solubility of the compound was enhanced by pre-heating the solvent (lukewarm), if necessary. […] The stock solutions were stored at -80°C. […] Matched concentration solvent vehicle controls were used for each drug concentration. The drug screens were performed in triplicate and repeated three times for the monotherapies and twice for the combination treatments. The drug(s) and corresponding controls were plated in 96-well PCR plates (VWR) and stored at -20°C (Fig. 6). The drug plates were thawed, centrifuged (3000 rpm for 30s), and acclimatized to RT before the drugs were added to the cells. New drug plates were prepared for each drug screen.
(§5) The cells were seeded at a density of 4.0x10^3 to 7.5x10^3 (cell type-dependent) in 96-well clear, flat-bottom microplates (Corning Life Sciences, Sigma-Aldrich) in 100 µl culture medium supplemented with 10% FBS and cultured for 24h. Cell viability was determined using the resazurin assay after 24h drug treatment (Fig. 6). Percentage cell viability was calculated as 100% × (absorbance of treated cells – absorbance of background controls) / (absorbance of matched solvent vehicle controls – absorbance of background controls). Normalized growth rate inhibition (GR) was assessed using the absorbance of untreated cells after the time of plating (t = 0). […] For combination treatment, the monotherapy data were evaluated with the IDACombo (version 1.0.2)[20] package in R to predict potential drug combinations (Table 1). SynergyFinder (version 3.2.10)[21] package in R was used to identify synergistic drug combinations.

[2] = system: control cell lines (MCF-10A and MCF-7); assay: Monotherapy drug screen, mean across the controls; format: cell-based, human; settings: for area under the dose response curve (AUC), mean ± SD: 24 h
Protocol: as §2, §3, §4, §5

[3] = target: T1, β5 catalytic site of the 20 S proteasome (Homo sapiens, UniProt P28074); assay: Proteasome activity of the β5 catalytic site in MCF-7 cells (Suc-Leu-Leu-Val-Tyr-AMC substrate); format: cell-based
T1 construct: endogenous in cells; host or cells: MCF-7
Protocol: Proteasome activity of the β5 catalytic site was determined for the PIs using a Suc-Leu-Leu-Val-Tyr-AMC fluorescent proteasome substrate (Enzo Life Sciences, Cat. BML-P802) at a final concentration of 20 µM. MCF-7 cells were seeded at 7.5 × 10^3 cells/well in black 96-well flat-bottom microplates (Nuclon™ Delta Surface, ThermoFisher Scientific) with 100 µl culture medium supplemented with 10% FBS. After 24 h, the cells were treated for 6 h with the 11 PIs at 1, 10, 100, and 1000 nM and matched untreated controls.

CAL-148 cells = assay: Combination therapy, resazurin viability, SynergyFinder; format: cell-based, human
Protocol: as §2, §3, §4, §5

HCC38 cells = assay: as above; format: cell-based, human; settings: Homo sapiens
Protocol: as §2, §3, §4, §5

[4] = 24 h drug treatment, read-out: IC50
[5] = growth rate inhibition concentration at GR(c) = 0.5, 24 h, read-out: GR50 (the source's name)
[6] = MDA-MB-453, growth rate inhibition concentration at GR(c) = 0.5, 24 h, read-out: GR50 (the source's name)
[7] = Homo sapiens, 24 h drug treatment, read-out: IC50
[8] = Homo sapiens, growth rate inhibition concentration at GR(c) = 0.5, 24 h, read-out: GR50 (the source's name)
[9] = Homo sapiens, MDA-MB-453, growth rate inhibition concentration at GR(c) = 0.5, 24 h, read-out: GR50 (the source's name)
[10] = MCF7, MCF-7 cells treated 6 h, 10000 nM, read-out: inhibition of β5 activity
[11] = metrics GR50 < 1.0 µM and AUC < 0.80

Compound: CC[C@H](C)[C@H](NC(=O)[C@H]([C@@H](C)CC)N(C)C(C)=O)C(=O)N[C@H](C(=O)N[C@@H](CC(C)C)C(=O)[C@@]1(C)CO1)[C@@H](C)O [Epoxomicin]
- IC50 (MCF-10A cells; [4]): 0.088 µM
- AUC (MCF-10A cells; 24 h): 0.58
- GRmax (MCF-10A cells): −0.05
- IC50 (MCF-10A cells; [5]): 0.095 µM
- AUC (MDA-MB-453 cells; MDA-MB-453): 0.70
- GRmax (MDA-MB-453 cells; MDA-MB-453): 0.32
- IC50 (MDA-MB-453 cells; [6]): 0.015 µM
- drug potency classification [1]: potent drugs
- drug potency classification, below the threshold [1]: highly potent drugs
- area under the dose response curve (AUC), mean ± SD [2]: 0.66 ± 0.080
- IC50 ([2]; 24 h drug treatment, read-out: GR50 (mean ± SD)): 0.085 ± 0.01 µM

Compound: CC(C)C[C@@H](C=O)NC(=O)[C@H](CC(C)C)NC(=O)[C@H](CC(C)C)NC(=O)OCc1ccccc1 [MG 132, MG-132] (Cbz-Leu-Leu-Leu-aldehyde)
- IC50 (MCF-10A cells; Homo sapiens, 24 h): 0.94 µM
- IC50 (MCF-10A cells; Homo sapiens, 24 h, read-out: GR50 (µM)): 0.4 µM
- AUC (MCF-10A cells; 24 h): 0.78
- IC50 (MDA-MB-453 cells; Homo sapiens, MDA-MB-453, 24 h, read-out: GR50 (µM)): 1.7 µM
- AUC (MDA-MB-453 cells; MDA-MB-453): 0.87
- inhibition at 10 µM ([3]; MCF7, read-out: inhibition of β5 activity): 25%

Compound: CC(C)C[C@H](NC(=O)CNC(=O)c1cc(Cl)ccc1Cl)B(O)O [MLN 2238, MLN-2238]
- IC50 (MCF-10A cells; [7]): 0.41 µM
- IC50 (MCF-10A cells; [8]): 0.076 µM
- AUC (MCF-10A cells; 24 h): 0.72
- IC50 (MDA-MB-453 cells; Homo sapiens, MDA-MB-453, 24 h drug treatment, read-out: IC50): 4.3 µM
- IC50 (MDA-MB-453 cells; [9]): 0.64 µM
- AUC (MDA-MB-453 cells; MDA-MB-453): 0.81
- inhibition at 10 µM [3, 10]: 33%
- drug potency classification, below the threshold [1]: highly potent drugs
- drug potency classification [1, 11]: potent drugs

Compound: CC(C)C[C@H](NC(=O)CNC(=O)c1cc(Cl)ccc1Cl)B1OC(=O)C(CC(=O)O)(CC(=O)O)O1 [MLN 9708, MLN-9708]
- IC50 (MCF-10A cells; [7]): 0.38 µM
- IC50 (MCF-10A cells; [8]): 0.07 µM
- AUC (MCF-10A cells; 24 h): 0.72
- IC50 (MDA-MB-453 cells; [9]): 1.8 µM
- AUC (MDA-MB-453 cells; MDA-MB-453): 0.88
- inhibition at 10 µM [3, 10]: 51%
- drug potency classification [1, 11]: potent drugs

Compound: [NH2][Pt]1([NH2])[O]CC(=O)[O]1 [Nedaplatin]
- IC50 (MCF-10A cells; [4]): 0.075 µM
- AUC (MCF-10A cells; 24 h): 0.57
- GRmax (MCF-10A cells): −0.40
- IC50 (MCF-10A cells; [5]): 0.074 µM
- AUC (MDA-MB-453 cells; MDA-MB-453): 0.86
- GRmax (MDA-MB-453 cells; MDA-MB-453): 0.34
- IC50 (MDA-MB-453 cells; [6]): 0.41 µM
- Inhibition (%) (CAL-148 cells; nedaplatin 8 µM alone): −9.21%
- Inhibition (%) (CAL-148 cells; nedaplatin 32 µM alone): 2.14%
- Inhibition (%) (CAL-148 cells; nedaplatin 128 µM alone): 9.01%
- Inhibition (%) (CAL-148 cells; nedaplatin 512 µM alone): 49.72%
- drug potency classification [1, 11]: potent drugs
- area under the dose response curve (AUC), mean ± SD [2]: 0.70 ± 0.13

Compound: COC[C@H](NC(=O)c1cnc(C)s1)C(=O)N[C@@H](COC)C(=O)N[C@@H](Cc1ccccc1)C(=O)[C@@]1(C)CO1 [Oprozomib]
- IC50 (MCF-10A cells; [7]): 2 µM
- IC50 (MCF-10A cells; [8]): 0.36 µM
- AUC (MCF-10A cells; 24 h): 0.79
- IC50 (MDA-MB-453 cells; [9]): 3.5 µM
- AUC (MDA-MB-453 cells; MDA-MB-453): 0.84

Compound: CC(=O)O[C@H]1C(=O)[C@@]2(C)[C@H]([C@H](OC(=O)c3ccccc3)[C@]3(O)C[C@H](OC(=O)[C@H](O)[C@@H](NC(=O)c4ccccc4)c4ccccc4)C(C)=C1C3(C)C)[C@]1(OC(C)=O)CO[C@@H]1C[C@@H]2O [Paclitaxel]
- IC50 (MCF-10A cells; [7]): 0.86 µM
- IC50 (MCF-10A cells; [8]): 0.098 µM
- AUC (MCF-10A cells; 24 h): 0.73
- AUC (MDA-MB-453 cells; MDA-MB-453): 0.93
- inhibition at 0.01 µM (HCC38 cells; paclitaxel 10 nM alone): -0.18%
- inhibition at 0.078 µM (HCC38 cells; paclitaxel 78 nM alone): 10.6%
- inhibition at 0.625 µM (HCC38 cells; paclitaxel 625 nM alone): 21.1%
- inhibition at 5 µM (HCC38 cells; paclitaxel 5000 nM alone): 24.7%
